US9604998B2, “Inhibitors of the renal outer medullary potassium channel” (MERCK SHARP & DOHME CORP., priority 2013, dated 2017)
pIC50: −log10 of the molar value. Counter-ions that a name gives are not always drawn. Like-named read-outs stand apart in the source and are kept apart here.

What was measured:
[1] = molecular target: hROMK (hKir1.1) (Homo sapiens (Human), UniProt P48048); assay: Thallium Flux Assay (ROMK channel functional thallium flux, FLIPR-Tetra); type: cell-based
Procedure: HEK293 cells stably expressing hROMK (hKir1.1) were grown at 37° C. in a 10% CO2 humidified incubator in complete growth media: Dulbecco's Modified Eagle Medium supplemented with non-essential amino acids, Penicillin/Streptomycin/Glutamine, G418 and FBS. At >80% confluency, aspirate the media from the flask and rinse with 10 mL Calcium/Magnesium-free PBS. […] To dislodge the cell, gently bang the side of the flask with your hand. Triturate the cells completely and then transfer the cells to 25 mL complete media. Centrifuge at 1,500 rpm for 6 min followed by resuspension in complete growth media and determine cell concentration.
Compound Buffer (per microplate): 20 mL Probenecid/Assay Buffer; 0.3 mM ouabain (10 mM ouabain in water can be stored in amber bottle/aluminum foil at room temperature); Test compound
Stimulant Buffer (prepared at 5× final concentration in 1× FluxOR™ Chloride-Free Buffer): 7.5 mM Thallium sulfate and […] (to give a final assay concentration of 3 mM Thallium/0.3 mM Potassium). Store at 4° C. when not in use. If kept sterile, this solution is good for months.
The ROMK channel functional thallium flux assay is performed in 384 wells, using the FLIPR-Tetra instrument. HEK-hKir1.1 cells are seeded in Poly-D-Lysine microplates and kept in a 37° C.-10% CO2 incubator overnight. On the day of the experiment, the growth media is replaced with the FluxOR™ reagent loading buffer and incubated, protected from light, at ambient temperature (23-25° C.) for 90 min. The loading buffer is replaced with assay buffer±test compound followed by 30 min incubation at ambient temperature, where the Thallium/Potassium stimulant is added to the microplate.
1. Seed HEK-hKir1.1 cells (50 μl at 20,000 cells/well) in 384-well PDL coated Microplates
2. Allow cells to adhere overnight in humidified 37° C./10% CO2 incubator
3. Completely remove cell growth media from microplate and replace with 25 μl loading buffer
4. Incubate Microplate at room temperature, protected form light, for 90 min
5. Remove loading buffer and replace with 25 μl 1× Assay Buffer±test compound.
6. Incubate microplate at room temperature, protected from light, for 30 min
7. […] Excitation=400 nm, Emission=460 & 580 nm. Collect data for ˜10 min.
The fluorescence intensity of wells containing 3 μM of a standard control ROMK inhibitor of the present invention is used to define the ROMK-sensitive component of thallium flux. Fluorescence in the presence of test compounds is normalized to control values to provide % fluorescence change.

[2] = molecular target: Kir1.1 (ROMK1) (Homo sapiens (Human), UniProt P48048); assay: Electrophysiology Assay (whole cell voltage clamp, IonWorks Quattro); type: cell-based; conditions: block during voltage step to 0 mV
Kir1.1 (ROMK1), sequence (P48048 whole entry, species assumed): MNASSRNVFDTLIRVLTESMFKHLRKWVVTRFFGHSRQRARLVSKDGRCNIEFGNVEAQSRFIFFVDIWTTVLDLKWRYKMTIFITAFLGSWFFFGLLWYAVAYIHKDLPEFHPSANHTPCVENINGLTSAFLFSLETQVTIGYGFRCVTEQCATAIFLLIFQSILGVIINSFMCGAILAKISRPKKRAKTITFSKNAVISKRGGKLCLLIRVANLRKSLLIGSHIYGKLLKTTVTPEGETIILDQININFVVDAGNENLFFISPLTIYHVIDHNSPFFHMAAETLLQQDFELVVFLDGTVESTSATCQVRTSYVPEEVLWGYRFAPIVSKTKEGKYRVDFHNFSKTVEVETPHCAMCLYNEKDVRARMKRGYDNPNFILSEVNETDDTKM
Procedure: Chinese hamster ovary cells stably expressing Kir1.1 channels were maintained in T-75 flasks in cell culture media in a humidified 10% CO2 incubator at 37° C. Prior to an experiment, Kir1.1 expression was induced by overnight incubation with 1 mM sodium butyrate. […] After centrifugation, the cell pellet was resuspended in approximately 4.0 mL of bath solution and placed in the IonWorks instrument. The intracellular solution consisted of (in mM): 80 K gluconate, 40 KCl, 20 KF, 3.2 MgCl2, 3 EGTA, 5 Hepes, pH 7.4. Electrical access to the cytoplasm was achieved by perforation in 0.13 mg/mL amphotericin B for 4 min. […] Voltage protocols and current recordings were performed using the IonWorks HT software/hardware system. Currents were sampled at 1 kHz. No correction for liquid junction potentials was used. The test pulse, consisting of a 100 ms step to 0 mV from a holding potential of −70 mV, followed by a 100 ms voltage ramp from −70 mV to +70 mV, was applied before and after a 6 min compound incubation period. Test compounds were prepared by diluting DMSO stock solutions into the bath solution at 3× the final concentration and placed in the instrument in 96-well polypropylene plates. Current amplitudes were measured using the IonWorks software.

[3] = HEK293 cells stably expressing hROMK (hKir1.1), read-out: Thallium Flux IC50
[4] = Chinese hamster ovary cells stably expressing Kir1.1, read-out: Electrophysiology IC50
[5] = Electrophysiology IC50, Chinese hamster ovary cells stably expressing Kir1.1
[6] = Thallium Flux IC50, HEK293 cells stably expressing hROMK (hKir1.1)

hROMK (hKir1.1), sequence (P48048 whole entry): as the sequence (P48048 whole entry, species assumed) above

Cc1c([C@@H]2CN3CCN(CC(O)c4ccc(-n5cnnn5)nc4)C[C@H]3CO2)ccc(F)c1C#N (single isomer, unassigned) [Example 16]
pIC50 [1, 3]: 6.25 | pIC50 [2, 4]: 7.10

Cc1c([C@H]2CN3CCN(CC(O)c4ccc(-n5cnnn5)nc4)C[C@H]3CO2)ccc(F)c1C#N (single isomer, unassigned) [Example 17]
pIC50 [1, 3]: 6.07 | pIC50 [2, 4]: 6.82

Cc1c([C@H]2CN3CCN(CC(O)c4ccc(-n5cnnn5)nc4)C[C@H]3CO2)ccc(F)c1C#N (single isomer, unassigned) [Example 18]
pIC50 [1, 3]: 6.54 | pIC50 [2, 4]: 7.00

Cc1cc(-n2cnnn2)ncc1C(O)CN1CCN2C[C@@H](c3ccc(F)c(C#N)c3C)OC[C@@H]2C1 (single isomer, unassigned) [Example 19]
pIC50 [1, 3]: 6.36 | pIC50 [2, 5]: 6.59

Cc1cc(-n2cnnn2)ncc1C(O)CN1CCN2C[C@@H](c3ccc(F)c(C#N)c3C)OC[C@@H]2C1 (single isomer, unassigned) [Example 20]
pIC50 [1, 3]: 6.52 | pIC50 [2, 5]: 6.62

Cc1nc(-n2cnnn2)ccc1C(O)CN1CCN2C[C@@H](c3ccc(F)c(C#N)c3C)OC[C@@H]2C1 (single isomer, unassigned) [Example 21]
pIC50 [1, 3]: 6.59

Cc1c([C@@H]2CN3CCN(CC(O)c4cccc(-n5cnnn5)c4)C[C@@H]3CO2)ccc(F)c1C#N (single isomer, unassigned) [Example 22]
pIC50 [1, 3]: 6.51 | pIC50 [2, 4]: 6.36

Cc1c([C@@H]2CN3CCN(CC(O)c4cccc(-n5cnnn5)c4)C[C@@H]3CO2)ccc(F)c1C#N (single isomer, unassigned) [Example 23]
pIC50 [1, 3]: 6.49

Cc1cc2c(cc1C(O)CN1CCN3C[C@@H](c4ccc(F)c(C#N)c4C)OC[C@@H]3C1)COC2=O (single isomer, unassigned) [Example 24, trifluoroacetate]
pIC50 [1, 6]: 6.35 | pIC50 [2, 5]: 6.62

Cc1cc2c(cc1C(O)CN1CCN3C[C@@H](c4ccc(F)c(C#N)c4C)OC[C@@H]3C1)COC2=O (single isomer, unassigned) [Example 25, trifluoroacetate]
pIC50 [1, 6]: 6.47 | pIC50 [2, 5]: 6.72

Cc1cc2c(cc1C(O)CN1CCN3C[C@H](c4ccc(F)c(C#N)c4C)OC[C@@H]3C1)COC2=O (single isomer, unassigned) [Example 26, trifluoroacetate]
pIC50 [1, 6]: 6.60 | pIC50 [2, 5]: 6.66

Cc1cc2c(cc1C(O)CN1CCN3C[C@H](c4ccc(F)c(C#N)c4C)OC[C@@H]3C1)COC2=O (single isomer, unassigned) [Example 27, trifluoroacetate]
pIC50 [1, 6]: 6.51 | pIC50 [2, 5]: 6.62

COc1cc(C(O)CN2CCN3C[C@@H](c4ccc5c(c4C)COC5=O)OC[C@@H]3C2)c(F)cc1C#N (single isomer, unassigned) [Example 37]
pIC50 [1, 3]: 6.33 | pIC50 [2, 4]: 6.96

Cc1cc2c(cc1C(O)CN1CCN3C[C@@H](c4ccc5c(c4C)COC5=O)OC[C@@H]3C1)COC2=O (single isomer, unassigned) [Example 42]
pIC50 [1, 3]: 6.66 | pIC50 [2, 4]: 7.10

Cc1cc2c(cc1C(O)CN1CCN3C[C@@H](c4ccc5c(c4C)COC5=O)OC[C@@H]3C1)COC2=O (single isomer, unassigned) [Example 43]
pIC50 [1, 3]: 6.68 | pIC50 [2, 4]: 6.89

Cc1c([C@@H]2CN3CCN(CC(O)c4ccc5c(c4)C[C@H](C)OC5=O)C[C@H]3CO2)ccc2c1COC2=O (single isomer, unassigned) [Example 44]
pIC50 [1, 3]: 6.57 | pIC50 [2, 4]: 6.89

COc1cc(C(O)CN2CCN3C[C@@H](c4ccc5c(c4C)COC5=O)OC[C@@H]3C2)c(Cl)cc1C#N (stereo partly drawn) [Example 9, (3R,9aS)-8-[2-(2-chloro-4-cyano-5-methoxyphenyl)-2-hydroxyethyl]-3-(4-methyl-1-oxo-1,3-dihydro-2-benzofuran-5-yl)octahydropyrazino[2,1-c][1,4]oxazin-5-ium chloride]
pIC50 [1, 3]: 6.37

COc1c([C@@H]2CN3CCN(C[C@H](O)c4ccc5c(c4C)COC5=O)C[C@H]3CO2)ccc(C#N)c1F [Example 30, (3R,9aS)-3-(4-cyano-3-fluoro-2-methoxyphenyl)-8-[(2R)-2-hydroxy-2-(4-methyl-1-oxo-1,3-dihydro-2-benzofuran-5-yl)ethyl]octahydropyrazino[2,1-c][1,4]oxazin-8-ium chloride]
pIC50 [1, 3]: 6.64

COc1c([C@@H]2CN3CCN(C[C@@H](O)c4ccc5c(c4C)COC5=O)C[C@H]3CO2)ccc(C#N)c1F [Example 31, (3R,9aS)-3-(4-cyano-3-fluoro-2-methoxyphenyl)-8-[(2S)-2-hydroxy-2-(4-methyl-1-oxo-1,3-dihydro-2-benzofuran-5-yl)ethyl]octahydropyrazino[2,1-c][1,4]oxazin-8-ium chloride]
pIC50 [1, 3]: 6.19

COc1cc(CCN2CCN3C[C@@H](c4ccc5c(c4)COC5=O)OC[C@@H]3C2)ccc1C#N [Example 58]
pIC50 [2, 4]: 6.92

COc1cc(CCN2CCN3C[C@H](c4ccc5c(c4)COC5=O)OC[C@@H]3C2)ccc1C#N [Example 59]
pIC50 [2, 4]: 7.40

COc1cc(CCN2CCN3C[C@H](c4ccc5c(c4C)COC5=O)OC[C@@H]3C2)ccc1C#N [Example 60]
pIC50 [2, 4]: 6.74

O=C1OCc2cc(CCN3CCN4C[C@@H](c5ccc6c(c5)COC6=O)OC[C@@H]4C3)ccc21 [Example 62]
pIC50 [2, 4]: 7.40

Cc1c(CCN2CCN3C[C@H](c4ccc5c(c4C)COC5=O)OC[C@H]3C2)ccc2c1COC2=O [Example 67]
pIC50 [2, 4]: 7.15

Cc1c(CCN2CCN3C[C@@H](c4ccc5c(c4C)COC5=O)OC[C@H]3C2)ccc2c1COC2=O [Example 68]
pIC50 [2, 4]: 6.85

COc1cc([C@H]2CN3CCN(CCc4ccc5c(c4C)COC5=O)C[C@H]3CO2)ccc1C#N [Example 74]
pIC50 [2, 4]: 7.10

Cc1c([C@H]2CN3CCN(CCc4ccc5c(c4C)COC5=O)C[C@@H]3CO2)ccc(F)c1C#N [Example 77]
pIC50 [2, 4]: 7.15

Cc1c([C@@H]2CN3CCN(CCc4ccc5c(c4C)COC5=O)C[C@@H]3CO2)ccc(F)c1C#N [Example 78]
pIC50 [2, 4]: 7.15

COc1cc(F)c(CCN2CCN3C[C@@H](c4ccc5c(c4C)COC5=O)OC[C@@H]3C2)cc1C#N [Example 84]
pIC50 [2, 4]: 7.30

COc1cc(CCN2CCN3C[C@@H](c4ccc5c(c4)C[C@H](C)OC5=O)OC[C@@H]3C2)ccc1C#N [Example 85]
pIC50 [2, 4]: 7.05

Cc1c([C@@H]2CN3CCN(C[C@H](O)c4ccc5c(c4C)COC5=O)C[C@H]3CN2)ccc(F)c1C#N [Example 102, 6-fluoro-3-((3R,9aR)-8-((R)-2-hydroxy-2-(4-methyl-1-oxo-1,3-dihydroisobenzofuran-5-yl)ethyl)octahydro-1H-pyrazino[1,2-a]pyrazin-3-yl)-2-methylbenzonitrile]
pIC50 [1, 3]: 6.68

Cc1c([C@@H]2CN3CCN(CC4OCCc5c4ccc4c5COC4=O)C[C@H]3CO2)ccc2c1COC2=O (stereo partly drawn) [Example 109, 6-{[(3R,9aS)-3-(4-methyl-1-oxo-1,3-dihydro-2-benzofuran-5-yl)hexahydropyrazino[2,1-c][1,4]oxazin-8(1H)-yl]methyl}-8,9-dihydro-1H-furo[3,4-f]isochromen-3(6H)-one]
pIC50 [2, 4]: 7.30
